pIC50: −log10 of the molar value. Several values for one entry are separate records, joined by “and”; a condition that tells them apart may be missing. Equal entries are not always repeated. Values belong to the compound of their own block, whether it stands above or below them.
Key:
AChE = AChE (Homo sapiens, UniProt P22303); assay: biochemical; details: for pIC50: modified Ellman, read-out: AChE inhibitory activity IC50
Experimental: (§1) The effects of twenty synthetic compounds were evaluated for AChE and BuChE inhibition using the modified method of Ellman et al.[33] […] AChE and BuChE are found in the brains of mammals. Genetically, structurally, and kinetically, the two kinds vary. In the human brain, BuChE is found in glial cells and neurons as well as in plaques and tangles in AD patients. […] BuChE may replace AChE by hydrolysing brain acetylcholine in some conditions, such as in mice nullizygote for AChE or in AD patients in advanced stages of the disease[34]^,[35].

[1] = system: COX-2 production in LPS-induced BV2 microglia cell lines; assay: COX-2 assessment in LPS-induced BV2 microglia (ELISA); assay type: cell-based
Experimental: Previously, it was reported that COX-2 is a key mediator in the inflammatory response and may play a role in neurodegeneration.
(§2) LPS was the used positive control.
For COX-2, all reagents, samples, and standards were prepared as Kit instructions, then 100 μl of standard or sample were added to each well, incubated 2.5 h at room temperature. Then 100 μl of prepared biotin antibody was added to each well, incubated an hour at room temperature. After that 100 μl of prepared Streptavidin solution was added. Then it was incubated for 45 min at room temperature. An aliquot of 100 μl TMB One-Step Substrate Reagent was added to each well, incubated 30 min at room temperature, 50 μL stop solution added to each well. Finally, the optical density was read at 450 nm immediately.

[2] = system: TNF-α production in LPS-induced BV2 microglia cell lines; assay: TNF-α assessment in LPS-induced BV2 microglia (ELISA); assay type: cell-based
Experimental: TNF-α signalling exacerbates both Aβ and tau pathologies in vivo, according to several lines of evidence based on genetic and pharmacological modifications.
as §2
For TNF-α, cell lysate was used to assess TNF-α using the MyBioSource ELISA kit (Catalog No: MBS2502004). This assay employs the quantitative sandwich enzyme immunoassay technique. Briefly, 100 µl of the samples were added to each well. Incubate for 90 min at 37 °C, and immediately add 100 μl of Biotinylated Detection Ab working solution to each well. Incubate for 1 h at 37 °C, then add 350 µl of wash buffer to each well, 100 μl of HRP Conjugate working solution to each well was added, incubated for 30 min at 37 °C. Add 90 μl of Substrate Reagent to each well. Incubate for about 15 min at 37 °C. Then, 50 μl of Stop Solution was added to each well. Finally, the optical density of each well was detected at 450 nm.

BuChE = BuChE (Homo sapiens, UniProt P06276); assay: biochemical; details: modified Ellman; read-out: BuChE inhibitory activity IC50
BuChE, sequence (P06276 29-602): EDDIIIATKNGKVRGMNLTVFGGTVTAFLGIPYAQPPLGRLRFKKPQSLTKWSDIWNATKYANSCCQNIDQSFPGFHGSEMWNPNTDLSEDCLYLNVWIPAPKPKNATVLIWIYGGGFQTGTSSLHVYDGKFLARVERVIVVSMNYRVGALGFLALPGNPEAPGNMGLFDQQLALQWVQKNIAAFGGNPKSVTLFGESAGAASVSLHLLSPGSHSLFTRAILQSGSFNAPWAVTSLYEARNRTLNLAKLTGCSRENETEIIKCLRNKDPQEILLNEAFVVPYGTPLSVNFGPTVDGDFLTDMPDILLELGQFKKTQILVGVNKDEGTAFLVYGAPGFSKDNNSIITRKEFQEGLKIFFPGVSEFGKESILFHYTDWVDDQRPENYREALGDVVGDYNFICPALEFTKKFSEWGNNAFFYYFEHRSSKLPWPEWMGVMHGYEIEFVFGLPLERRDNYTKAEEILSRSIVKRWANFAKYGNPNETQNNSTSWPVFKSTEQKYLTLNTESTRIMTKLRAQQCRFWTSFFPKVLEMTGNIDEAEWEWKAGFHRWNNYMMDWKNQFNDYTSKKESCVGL
Experimental: as §1

Aβ1–42 = molecular target: T1, Aβ1–42 (Homo sapiens, UniProt P05067); assay: Inhibition of Aβ1-42 self-induced aggregation (BioVision ligand screening kit); assay type: biochemical; details: µM
T1 construct: purchased BioVision K570-100
T1 sequence (P05067 672-713 limits assumed): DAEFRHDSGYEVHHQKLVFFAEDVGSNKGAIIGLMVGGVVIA
From the text: Screening Aβ42 ligands that could prevent aggregation is critical for developing potential therapeutic treatments. In BioVision’s Beta-Amyloid 1–42 (Aβ42) Ligand Screening kit, a dye binds to the beta-sheets of an aggregated amyloid peptide resulting in an intense fluorescent product at wave length 450 nm using a BIOLINE ELISA reader. In the presence of an Aβ42 ligand, this reaction is impeded/abolished resulting in a decrease or total loss of fluorescence. This assay is useful in screening Aβ42 ligands for developing potential therapeutic agents against AD[42]. The assessment was performed according to BioVision’s Beta-Amyloid 1–42 (Aβ42) Ligand Screening Kit Catalog No. K570-100.

[3] = system: NO production in LPS-induced BV2 microglia cell lines; assay: Nitric oxide (NO) assessment in LPS-induced BV2 microglia; assay type: cell-based; details: positive control 6.42 pg/mL
Experimental: In AD, increased production of vascular NO, a highly neurotoxic mediator in the CNS, may contribute to the vulnerability of neurons to injury and cell death.
as §2
NO plays an important role in neurotransmission, vascular regulation, immune response, and apoptosis. NO is rapidly oxidised to nitrite and nitrate which are used to quantitate NO. NO was estimated using the Abcam ELISA kit (catalog No. ab65328). Briefly, enzyme was added to cell lysate, followed with cofactor and incubated at room temperature for 60 min, after that Griess reagent was added and incubated at room temperature for 10 min., finally optical density was measured at 540 nm.
Microglia cell Line, BV-2, human neuroblastoma (SH-SY5Y), and normal hepatic (THLE2) cells were obtained from American Type Culture Collection, cells were cultured using DMEM (Invitrogen/Life Technologies, Carlsbad, CA) supplemented with 10% FBS (Hyclone), 10 µg/mL of insulin (Sigma, St. Louis, MO), and 1% penicillin-streptomycin. All of the other chemicals and reagents were from Sigma, or Invitrogen. Plate cells (cells density 1.2 − 1.8 × 10,000 cells/well) in a volume of 100 µL complete growth medium + 100 µL of the tested compounds per well in a 96-well plate for 24 h before the MTT assay.

[4] = system: IL-1β production in LPS-induced BV2 microglia cell lines; assay: IL-1β assessment in LPS-induced BV2 microglia (ELISA); assay type: cell-based
Experimental: IL-1β is a pro-inflammatory cytokines involved in the pathogenesis of AD[40]. So, activity of 5b and 6b derivatives were evaluated against LPS-induced BV2 microglia cell lines production of IL-1β. They induced a decrease in IL-1β level to about 5% and 48%, sequentially, as compared to a positive control (Figure 5).
as §2
For IL-1β, this assay employs the quantitative sandwich enzyme immunoassay technique. A monoclonal antibody specific for human IL-1β has been pre-coated onto a micro plate. Standards and samples are piped into the wells and any IL-1β present is bound by the immobilised antibody. After washing away any unbound substances, an enzyme-linked polyclonal antibody specific for human IL-1β is added to the wells. Following a wash to remove any unbound antibody-enzyme reagent, a substrate solution is added to the wells and colour develops in proportion to the amount of IL-1β bound in the initial step. The colour development is stopped and the intensity of the colour is measured, the method of assessment was performed as instructed in the IL-1 β R&D system ELISA kit (catalog No. DLB50).

AChE, sequence (P22303 32-614): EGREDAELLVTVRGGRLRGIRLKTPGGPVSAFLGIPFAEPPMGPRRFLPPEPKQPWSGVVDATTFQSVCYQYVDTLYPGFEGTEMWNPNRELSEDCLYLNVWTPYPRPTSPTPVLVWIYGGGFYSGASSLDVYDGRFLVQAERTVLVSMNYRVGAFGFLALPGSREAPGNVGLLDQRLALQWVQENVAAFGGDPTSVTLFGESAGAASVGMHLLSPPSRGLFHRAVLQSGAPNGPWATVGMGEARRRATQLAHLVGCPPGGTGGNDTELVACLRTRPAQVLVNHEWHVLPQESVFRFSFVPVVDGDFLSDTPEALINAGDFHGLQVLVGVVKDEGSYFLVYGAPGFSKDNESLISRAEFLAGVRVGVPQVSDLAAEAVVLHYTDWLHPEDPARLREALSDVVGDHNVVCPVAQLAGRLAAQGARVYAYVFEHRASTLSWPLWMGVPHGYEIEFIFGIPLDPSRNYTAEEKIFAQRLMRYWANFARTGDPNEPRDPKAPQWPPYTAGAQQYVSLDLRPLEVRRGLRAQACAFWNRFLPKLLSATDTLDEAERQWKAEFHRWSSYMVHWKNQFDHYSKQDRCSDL

SMILES: COc1ccc(-c2c(C#N)c(N)n(/N=C/c3cn(S(C)(=O)=O)c4ccccc34)c(=O)c2C#N)cc1 [Compound 9a, (E)-6-Amino-4-(4-methoxyphenyl)-1-{[(1-(methylsulfonyl)-1H-indol-3-yl)methylene]amino}-2-oxo-1,2-dihydropyridine-3,5-dicarbonitrile]
AChE inhibition in words, compared to reference drugs (tacrine and donepezil) (AChE): less activity

SMILES: CS(=O)(=O)n1cc(/C=C(/C(=O)O)c2ccc(Cl)cc2)c2ccccc21 [Compound 3b, (E)-2–(4-Chlorophenyl)-3-[1-(methylsulfonyl)-1H-indol-3-yl]acrylic acid]
AChE inhibition in words, compared to reference drugs (tacrine and donepezil) (AChE): less activity

melting point: 181 to 183 °C
SMILES: CS(=O)(=O)n1cc(/C=C(/C(=O)O)c2ccccc2)c2ccccc21

SMILES: CS(=O)(=O)n1cc(/C=C/C(=O)c2ccc(NC(=O)CN3CCC(Cc4ccccc4)CC3)cc2)c2ccccc21 [Compound 6b, (E)-2–(4-Benzylpiperidin-1-yl)-N-{4-[3–(1-(methylsulfonyl)-1H-indol-3-yl)acryloyl]phenyl}acetamide]
decrease in COX-2 levels as compared to a positive control [1]: ~14%
decrease in TNF-α levels to, compared to positive control [2]: 67%
pIC50 (BuChE): 7.09
pIC50 (AChE): 7.31
IC50 (Aβ1–42): 4.94 µM
NO level [3]: 4.46 pg/mL
decrease in IL-1β level to about, as compared to a positive control [4]: ~48%

SMILES: CS(=O)(=O)n1cc(/C=C(\C(=O)N2CCCCC2)c2ccc(Cl)cc2)c2ccccc21 [Compound 4a, (E)-2–(4-Chlorophenyl)-3-[1-(methylsulfonyl)-1H-indol-3-yl]-1-(pipridin-1-yl)prop-2-en-1-one]
pIC50 (BuChE): 7.13 to 7.38 and 7.09 to 7.43
pIC50 (AChE): 6.79 to 6.88
IC50 (Aβ1–42): 22.4 µM

SMILES: CS(=O)(=O)n1cc(/C=N/NC(=O)Cc2ccccc2)c2ccccc21 [Compound 7b, (E)-N'-{[1-(Methylsulfonyl)-1H-indol-3-yl]methylene}-2-phenylacetohydrazide]
AChE inhibition in words, compared to reference drugs (tacrine and donepezil) (AChE): less activity

SMILES: CS(=O)(=O)n1cc(/C=C(\C(=O)N2CCN(c3ncccn3)CC2)c2ccc(Cl)cc2)c2ccccc21 [Compound 4c, (E)-2–(4-Chlorophenyl)-3-[1-(methylsulfonyl)-1H-indol-3-yl]-1-[4-(pyrimidin-2-yl)piprazin-1-yl]prop-2-en-1-one]
AChE inhibition in words, compared to reference drugs (tacrine and donepezil) (AChE): less activity

SMILES: COc1cc(/C(=C\c2cn(S(C)(=O)=O)c3ccccc23)C(=O)O)cc(OC)c1OC [Compound 3c, (E)-3-[1-(Methylsulfonyl)-1H-indol-3-yl]-2–(3,4,5-trimethoxyphenyl)acrylic acid]
pIC50 (BuChE): 6.93
pIC50 (AChE): 7.39
IC50 (Aβ1–42): 6.91 µM

SMILES: COc1ccc(-c2c(C#N)c(N)n(/N=C/c3cn(S(C)(=O)=O)c4ccccc34)c(=O)c2C#N)cc1OC [Compound 9b, (E)-6-Amino-4–(3,4-dimethoxyphenyl)-1-{[(1-(methylsulfonyl)-1H-indol-3-yl)methylene]amino}-2-oxo-1,2-dihydropyridine-3,5-dicarbonitrile]
AChE inhibition in words, compared to reference drugs (tacrine and donepezil) (AChE): less activity

SMILES: CCn1c(N)c(C(=O)N/N=C/c2cn(S(C)(=O)=O)c3ccccc23)sc1=S [Compound 10a, (E)-4-Amino-3-ethyl-N'-{[1-(methylsulfonyl)-1H-indol-3-yl]methylene}-2-thioxo-2,3-dihydrothiazole-5-carbohydrazide]
AChE inhibition in words, compared to reference drugs (tacrine and donepezil) (AChE): less activity

SMILES: CS(=O)(=O)n1cc(/C=N/NC(=O)c2sc(=S)n(-c3ccccc3)c2N)c2ccccc21 [Compound 10b, (E)-4-Amino-N'-{[1-(methylsulfonyl)-1H-indol-3-yl]methylene}-3-phenyl-2-thioxo-2,3-dihydrothiazole-5-carbohydrazide]
pIC50 (BuChE): 7.32
pIC50 (AChE): 7.19
IC50 (Aβ1–42): 5.16 µM

SMILES: CS(=O)(=O)n1cc(C=C(C(=O)N2CCC(Cc3ccccc3)CC2)c2ccc(Cl)cc2)c2ccccc21 [Compound 4d, (E)-1–(4-Benzylpipridin-1-yl)-2–(4-chlorophenyl)-3-[1-(methylsulfonyl)-1H-indol-3-yl]prop-2-en-1-one]
pIC50 (BuChE): 7.13 to 7.38 and 7.09 to 7.43
pIC50 (AChE): 6.79 to 6.88
IC50 (Aβ1–42): 8.76 µM

SMILES: CS(=O)(=O)n1cc(/C=C/C(=O)c2ccc(NC(=O)Cc3ccc(Cl)cc3)cc2)c2ccccc21 [Compound 5b, (E)-2–(4-Chlorophenyl)-N-{4-[3–(1-(methylsulfonyl)-1H-indol-3-yl)acryloyl]phenyl}acetamide]
decrease in COX-2 levels as compared to a positive control [1]: about 20%
decrease in TNF-α levels to, compared to positive control [2]: 53%
pIC50 (BuChE): 7.43
pIC50 (AChE): 7.56
IC50 (Aβ1–42): 2.5 µM
NO level [3]: 4.89 pg/mL
decrease in IL-1β level to about, as compared to a positive control [4]: about 5%

SMILES: CS(=O)(=O)n1cc(/C=C(/C(=O)Nc2cccnc2)c2ccc(Cl)cc2)c2ccccc21 [Compound 4b, (E)-2–(4-Chlorophenyl)-3-[1-(methylsulfonyl)-1H-indol-3-yl]-N-(pyridin-3-yl)acrylamide]
pIC50 (BuChE): 7.13 to 7.38 and 7.09 to 7.43
pIC50 (AChE): 6.79 to 6.88
IC50 (Aβ1–42): 13.8 µM

SMILES: CS(=O)(=O)n1cc(/C=C/C(=O)c2ccc(NC(=O)Cc3ccccc3)cc2)c2ccccc21 [Compound 5a, (E)-N-{4-[3–(1-(methylsulfonyl)-1H-indol-3-yl)acryloyl]phenyl}-2-phenylacetamide]
AChE inhibition in words, compared to reference drugs (tacrine and donepezil) (AChE): less activity

SMILES: CS(=O)(=O)n1cc(/C=N/NC(=O)Cc2ccc(Cl)cc2)c2ccccc21 [Compound 7c, (E)-2–(4-Chlorophenyl)-N'-{[1-(methylsulfonyl)-1H-indol-3-yl]methylene}acetohydrazide]
pIC50 (BuChE): 7.12
pIC50 (AChE): 7.05
IC50 (Aβ1–42): 14.9 µM

melting point: 176 to 178 °C
SMILES: COc1cc(CC(=O)Nc2ccc(C(=O)/C=C/c3cn(S(C)(=O)=O)c4ccccc34)cc2)cc(OC)c1OC

SMILES: CS(=O)(=O)n1cc(/C=C/C(=O)c2cccc(NC(=O)CN3CCC(Cc4ccccc4)CC3)c2)c2ccccc21 [Compound 6a, (E)-2–(4-Benzylpiperidin-1-yl)-N-{3-[3–(1-(methylsulfonyl)-1H-indol-3-yl)acryloyl]phenyl}acetamide]
AChE inhibition in words, compared to reference drugs (tacrine and donepezil) (AChE): less activity

melting point: 114 to 116 °C
SMILES: CS(=O)(=O)n1cc(/C=N/NC(=O)c2ccccc2)c2ccccc21

melting point: 210 to 212 °C
SMILES: COc1cc(-c2c(C#N)c(N)n(/N=C/c3cn(S(C)(=O)=O)c4ccccc34)c(=O)c2C#N)cc(OC)c1OC
